Consider 24 compounds from patent US10787452B2 (Vertex Pharmaceuticals Incorporated, priority 2012, dated 2020).

This assay has as its system HCT116 colorectal cancer cells. Description: Cisplatin sensitization assay (96 h cell viability MTS).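 Note: compound concentration needed to lower the Cisplatin-alone IC50 by a set fold.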 The note with it: 96 h MTS, compound plus Cisplatin. Format: cell-based. In a few lines: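 Viability is measured with MTS reagent, added after 96 h and developed for 1 h at 37° C. Beforehand, cells receive compound and cisplatin simultaneously in a concentration matrix of 2-fold serial dilutions starting at 10 μM final.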
As for `CN1CCC(C(=O)N2CCN(c3c(F)cncc3NC(=O)c3c(N)nn4cc(F)cnc34)CC2)C1` (stereo not drawn) [I-N-156, 2-amino-6-fluoro-N-(5-fluoro-4-(4-(1-methylpyrrolidine-3-carbonyl)piperazin-1-yl)pyridin-3-yl)pyrazolo[1,5-a]pyrimidine-3-carboxamide], the “Cisplatin Sensitization Assay” value was “+++ (Compounds with a Cisplatin sensitization value of <0.02 μM are marked with “+++.”)”.

Turning to `CN1CCC[C@H]1C(=O)N1CCN(c2c(F)cncc2NC(=O)c2c(N)nn3cc(F)cnc23)CC1` [I-N-157, (S)-2-amino-6-fluoro-N-(5-fluoro-4-(4-(1-methylpyrrolidine-2-carbonyl)piperazin-1-yl)pyridin-3-yl)pyrazolo[1,5-a]pyrimidine-3-carboxamide], the “Cisplatin Sensitization Assay” value is given as “++ (Compounds with a Cisplatin sensitization value >0.02 μM but <0.2 μM are marked with “++.”)”.

Take `Nc1nn2cc(F)cnc2c1C(=O)Nc1cncc(F)c1N1CCN(S(=O)(=O)C2CCOCC2)CC1` [I-N-158, 2-amino-6-fluoro-N-(5-fluoro-4-(4-((tetrahydro-2H-pyran-4-yl)sulfonyl)piperazin-1-yl)pyridin-3-yl)pyrazolo[1,5-a]pyrimidine-3-carboxamide]: the “Cisplatin Sensitization Assay” value is “+++ (Compounds with a Cisplatin sensitization value of <0.02 μM are marked with “+++.”)”.

On to `Nc1nn2cc(F)cnc2c1C(=O)Nc1cncc(F)c1N1CCN(S(=O)(=O)C2CC2)CC1` [I-N-159, 2-amino-N-(4-(4-(cyclopropylsulfonyl)piperazin-1-yl)-5-fluoropyridin-3-yl)-6-fluoropyrazolo[1,5-a]pyrimidine-3-carboxamide], for which the “Cisplatin Sensitization Assay” value is “+++ (Compounds with a Cisplatin sensitization value of <0.02 μM are marked with “+++.”)”.

Regarding `Nc1nn2cc(F)cnc2c1C(=O)Nc1cncc(F)c1N1CCN(C(=O)CN2CCC2)CC1` [I-N-160, 2-amino-N-(4-(4-(2-(azetidin-1-yl)acetyl)piperazin-1-yl)-5-fluoropyridin-3-yl)-6-fluoropyrazolo[1,5-a]pyrimidine-3-carboxamide], the “Cisplatin Sensitization Assay” value is on record as “+++ (Compounds with a Cisplatin sensitization value of <0.02 μM are marked with “+++.”)”.

As for `Cc1ncn(-c2ccncc2NC(=O)c2c(N)nn3cc(F)cnc23)n1` [I-N-161, 2-amino-6-fluoro-N-(4-(3-methyl-1H-1,2,4-triazol-1-yl)pyridin-3-yl)pyrazolo[1,5-a]pyrimidine-3-carboxamide], the “Cisplatin Sensitization Assay” value was “+ (Compounds with a Cisplatin sensitization value >0.2 μM but <5 μM are marked with “+.”)”.

For `Cc1ncnn1-c1ccncc1NC(=O)c1c(N)nn2cc(F)cnc12` [I-N-162, 2-amino-6-fluoro-N-(4-(5-methyl-1H-1,2,4-triazol-1-yl)pyridin-3-yl)pyrazolo[1,5-a]pyrimidine-3-carboxamide], the “Cisplatin Sensitization Assay” value was “++ (Compounds with a Cisplatin sensitization value >0.02 μM but <0.2 μM are marked with “++.”)”.

Take `Nc1nn2cc(F)cnc2c1C(=O)Nc1cncc(F)c1N1CCN2C(=O)CCC2C1` (stereo not drawn) [I-N-163, 2-amino-6-fluoro-N-(5-fluoro-4-(6-oxohexahydropyrrolo[1,2-a]pyrazin-2(1H)-yl)pyridin-3-yl)pyrazolo[1,5-a]pyrimidine-3-carboxamide]: the “Cisplatin Sensitization Assay” value is listed as “+++ (Compounds with a Cisplatin sensitization value of <0.02 μM are marked with “+++.”)”.

Take `CN1CC(OC2CCN(c3ccncc3NC(=O)c3c(N)nn4cc(F)cnc34)CC2)C1` [I-N-164, 2-amino-6-fluoro-N-(4-(4-((1-methylazetidin-3-yl)oxy)piperidin-1-yl)pyridin-3-yl)pyrazolo[1,5-a]pyrimidine-3-carboxamide]: the “Cisplatin Sensitization Assay” value was “+++ (Compounds with a Cisplatin sensitization value of <0.02 μM are marked with “+++.”)”.

As for `CS(=O)(=O)C1CCN(c2c(F)cncc2NC(=O)c2c(N)nn3cc(F)cnc23)CC1` [I-N-165, 2-amino-6-fluoro-N-(5-fluoro-4-(4-(methylsulfonyl)piperidin-1-yl)pyridin-3-yl)pyrazolo[1,5-a]pyrimidine-3-carboxamide], the “Cisplatin Sensitization Assay” value is on record as “+++ (Compounds with a Cisplatin sensitization value of <0.02 μM are marked with “+++.”)”.

`CN1CCN(S(=O)(=O)C2CCN(c3c(F)cncc3NC(=O)c3c(N)nn4cc(F)cnc34)CC2)CC1` [I-N-166, 2-amino-6-fluoro-N-(5-fluoro-4-(4-((4-methylpiperazin-1-yl)sulfonyl)piperidin-1-yl)pyridin-3-yl)pyrazolo[1,5-a]pyrimidine-3-carboxamide]: the “Cisplatin Sensitization Assay” value is listed as “+++ (Compounds with a Cisplatin sensitization value of <0.02 μM are marked with “+++.”)”.

As to `Nc1nn2cc(F)cnc2c1C(=O)Nc1cncc(F)c1N1CCC(OCCN2CCCC2)CC1` [I-N-167, 2-amino-6-fluoro-N-(5-fluoro-4-(4-(2-(pyrrolidin-1-yl)ethoxy)piperidin-1-yl)pyridin-3-yl)pyrazolo[1,5-a]pyrimidine-3-carboxamide], the “Cisplatin Sensitization Assay” value is listed as “+++ (Compounds with a Cisplatin sensitization value of <0.02 μM are marked with “+++.”)”.

In the case of `Nc1nn2cc(F)cnc2c1C(=O)Nc1cncc(F)c1N1CCN(C(=O)C2CNC2)CC1` [I-N-168, 2-amino-N-(4-(4-(azetidine-3-carbonyl)piperazin-1-yl)-5-fluoropyridin-3-yl)-6-fluoropyrazolo[1,5-a]pyrimidine-3-carboxamide], the “Cisplatin Sensitization Assay” value is listed as “+ (Compounds with a Cisplatin sensitization value >0.2 μM but <5 μM are marked with “+.”)”.

As to `Nc1nn2cc(F)cnc2c1C(=O)Nc1cncc(F)c1N1CCC(S(=O)(=O)N2CCC2)CC1` [I-N-169, 2-amino-N-(4-(4-(azetidin-1-ylsulfonyl)piperidin-1-yl)-5-fluoropyridin-3-yl)-6-fluoropyrazolo[1,5-a]pyrimidine-3-carboxamide], the “Cisplatin Sensitization Assay” value was “+++ (Compounds with a Cisplatin sensitization value of <0.02 μM are marked with “+++.”)”.

For the compound `Nc1nn2cc(F)cnc2c1C(=O)Nc1cnccc1N1CCC(S(=O)(=O)N2CCOCC2)CC1` [I-N-170, 2-amino-6-fluoro-N-(4-(4-(morpholinosulfonyl)piperidin-1-yl)pyridin-3-yl)pyrazolo[1,5-a]pyrimidine-3-carboxamide], the “Cisplatin Sensitization Assay” value was “+++ (Compounds with a Cisplatin sensitization value of <0.02 μM are marked with “+++.”)”.

Consider `CN1CCN(CC2CCN(c3c(F)cncc3NC(=O)c3c(N)nn4cc(F)cnc34)CC2)CC1=O` [I-N-171, 2-amino-6-fluoro-N-(5-fluoro-4-(4-((4-methyl-3-oxopiperazin-1-yl)methyl)piperidin-1-yl)pyridin-3-yl)pyrazolo[1,5-a]pyrimidine-3-carboxamide], for which the “Cisplatin Sensitization Assay” value is “+++ (Compounds with a Cisplatin sensitization value of <0.02 μM are marked with “+++.”)”.

For `Nc1nn2cc(F)cnc2c1C(=O)Nc1cncc(F)c1N1CCN(C(=O)C2CNCCO2)CC1` (stereo not drawn) [I-N-172, 2-amino-6-fluoro-N-(5-fluoro-4-(4-(morpholine-2-carbonyl)piperazin-1-yl)pyridin-3-yl)pyrazolo[1,5-a]pyrimidine-3-carboxamide], the “Cisplatin Sensitization Assay” value is “+++ (Compounds with a Cisplatin sensitization value of <0.02 μM are marked with “+++.”)”.

For `CN1CCCCC1C(=O)N1CCN(c2c(F)cncc2NC(=O)c2c(N)nn3cc(F)cnc23)CC1` (stereo not drawn) [I-N-173, 2-amino-6-fluoro-N-(5-fluoro-4-(4-(1-methylpiperidine-2-carbonyl)piperazin-1-yl)pyridin-3-yl)pyrazolo[1,5-a]pyrimidine-3-carboxamide], the “Cisplatin Sensitization Assay” value is reported as “+++ (Compounds with a Cisplatin sensitization value of <0.02 μM are marked with “+++.”)”.

Turning to `CN1CCOC(C(=O)N2CCN(c3c(F)cncc3NC(=O)c3c(N)nn4cc(F)cnc34)CC2)C1` (stereo not drawn) [I-N-174, 2-amino-6-fluoro-N-(5-fluoro-4-(4-(4-methylmorpholine-2-carbonyl)piperazin-1-yl)pyridin-3-yl)pyrazolo[1,5-a]pyrimidine-3-carboxamide], the “Cisplatin Sensitization Assay” value is recorded as “+++ (Compounds with a Cisplatin sensitization value of <0.02 μM are marked with “+++.”)”.

As to `CN1CCC(S(=O)(=O)N2CCN(c3c(F)cncc3NC(=O)c3c(N)nn4cc(F)cnc34)CC2)CC1` [I-N-175, 2-amino-6-fluoro-N-(5-fluoro-4-(4-((1-methylpiperidin-4-yl)sulfonyl)piperazin-1-yl)pyridin-3-yl)pyrazolo[1,5-a]pyrimidine-3-carboxamide], the “Cisplatin Sensitization Assay” value is recorded as “+++ (Compounds with a Cisplatin sensitization value of <0.02 μM are marked with “+++.”)”.

With `Nc1nn2cc(F)cnc2c1C(=O)Nc1cnccc1N1CCN(S(=O)(=O)C2CC2)CC1` [I-N-176, 2-amino-N-(4-(4-(cyclopropylsulfonyl)piperazin-1-yl)pyridin-3-yl)-6-fluoropyrazolo[1,5-a]pyrimidine-3-carboxamide], the “Cisplatin Sensitization Assay” value is given as “+++ (Compounds with a Cisplatin sensitization value of <0.02 μM are marked with “+++.”)”.

Take `Nc1nn2cc(F)cnc2c1C(=O)Nc1cnccc1N1CCN(S(=O)(=O)C2CCOCC2)CC1` [I-N-177, 2-amino-6-fluoro-N-(4-(4-((tetrahydro-2H-pyran-4-yl)sulfonyl)piperazin-1-yl)pyridin-3-yl)pyrazolo[1,5-a]pyrimidine-3-carboxamide]: the “Cisplatin Sensitization Assay” value is listed as “+++ (Compounds with a Cisplatin sensitization value of <0.02 μM are marked with “+++.”)”.

Turning to `CS(=O)(=O)N1CCN(c2ccncc2NC(=O)c2c(N)nn3cc(F)cnc23)CC1` [I-N-178, 2-amino-6-fluoro-N-(4-(4-(methylsulfonyl)piperazin-1-yl)pyridin-3-yl)pyrazolo[1,5-a]pyrimidine-3-carboxamide], the “Cisplatin Sensitization Assay” value was “+++ (Compounds with a Cisplatin sensitization value of <0.02 μM are marked with “+++.”)”.

Turning to `Nc1nn2cc(F)cnc2c1C(=O)Nc1cnccc1N1CCN(S(=O)(=O)C2CCOC2)CC1` (stereo not drawn) [I-N-179, 2-amino-6-fluoro-N-(4-(4-((tetrahydrofuran-3-yl)sulfonyl)piperazin-1-yl)pyridin-3-yl)pyrazolo[1,5-a]pyrimidine-3-carboxamide], the “Cisplatin Sensitization Assay” value is recorded as “+++ (Compounds with a Cisplatin sensitization value of <0.02 μM are marked with “+++.”)”.
